# According to patent publication US11578074B2, “Nitrogenous heterocyclic compound, preparation method, intermediate, composition, and application” (SHANGHAI PHARMACEUTICALS HOLDING CO., LTD., priority 2017, dated 2023):
# Where two headings read alike, the source gives them in different places.
# Legend:
# CYP3A4 = molecular target: T1, CYP3A4 (Homo sapiens, UniProt P08684); assay: Direct inhibition (DI) of CYP3A4 in human liver microsomes; assay type: in vitro ADME; conditions: human liver microsomes 0.2 mg/mL, 10 μM compound
# T1 construct: A system of 100 μL human liver microsomes; from tissue; host or cells: human liver microsomes
# T1 sequence (P08684 whole entry): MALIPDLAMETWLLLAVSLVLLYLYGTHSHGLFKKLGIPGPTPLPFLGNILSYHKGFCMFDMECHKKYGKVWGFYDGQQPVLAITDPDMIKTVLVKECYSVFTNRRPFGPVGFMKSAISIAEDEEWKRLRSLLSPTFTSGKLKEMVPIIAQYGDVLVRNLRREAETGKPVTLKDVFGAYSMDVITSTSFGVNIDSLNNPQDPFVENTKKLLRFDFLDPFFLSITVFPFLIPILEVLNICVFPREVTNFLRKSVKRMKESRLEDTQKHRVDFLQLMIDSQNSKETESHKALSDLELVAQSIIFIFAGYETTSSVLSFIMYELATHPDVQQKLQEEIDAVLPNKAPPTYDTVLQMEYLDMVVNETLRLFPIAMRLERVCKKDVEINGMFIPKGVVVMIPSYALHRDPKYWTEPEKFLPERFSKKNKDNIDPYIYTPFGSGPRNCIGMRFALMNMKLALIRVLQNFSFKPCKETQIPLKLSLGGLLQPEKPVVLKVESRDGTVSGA
# Summary of the method: (§1)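 Pooled human liver microsomes (0.2 mg/mL) with 1 mM NADPH and 10 μM test compound were incubated for 20 min with a mixed probe-substrate cocktail (midazolam 10 μM, testosterone 100 μM, dextromethorphan 10 μM, diclofenac 20 μM, phenacetin 100 μM, mephenytoin 100 μM). Relative enzyme activity came from metabolite formation versus DMSO control.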
# CYP2D6 = molecular target: T2, CYP2D6 (Homo sapiens, UniProt P10635); assay: Direct inhibition (DI) of CYP2D6 in human liver microsomes; assay type: in vitro ADME; conditions: probe Dextromethorphan, human liver microsomes 0.2 mg/mL, 10 μM compound, read-out: Direct inhibition (DI) 2D6 (Dextromethorphan)
# T2 construct: A system of 100 μL human liver microsomes; from tissue; host or cells: human liver microsomes
# T2 sequence (P10635 whole entry): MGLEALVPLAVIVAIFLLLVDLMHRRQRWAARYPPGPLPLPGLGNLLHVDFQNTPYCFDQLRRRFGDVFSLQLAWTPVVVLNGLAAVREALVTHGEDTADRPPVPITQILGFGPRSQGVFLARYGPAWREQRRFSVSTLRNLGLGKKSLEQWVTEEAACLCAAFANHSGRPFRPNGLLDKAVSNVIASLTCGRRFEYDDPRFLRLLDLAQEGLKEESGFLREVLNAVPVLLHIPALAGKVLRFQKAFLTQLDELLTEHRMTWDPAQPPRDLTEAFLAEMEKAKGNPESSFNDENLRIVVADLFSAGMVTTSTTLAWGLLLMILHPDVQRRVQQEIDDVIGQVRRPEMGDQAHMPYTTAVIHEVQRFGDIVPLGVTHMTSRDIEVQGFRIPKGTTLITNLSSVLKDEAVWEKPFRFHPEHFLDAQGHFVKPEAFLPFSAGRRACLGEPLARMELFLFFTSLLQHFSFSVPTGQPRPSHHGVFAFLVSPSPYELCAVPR
# Summary of the method: as §1
# CYP2C9 = molecular target: T3, CYP2C9 (Homo sapiens, UniProt P11712); assay: Direct inhibition (DI) of CYP2C9 in human liver microsomes; assay type: in vitro ADME; conditions: probe Diclofenac, human liver microsomes 0.2 mg/mL, 10 μM compound, read-out: Direct inhibition (DI) 2C9 (Diclofenac)
# T3 construct: A system of 100 μL human liver microsomes; from tissue; host or cells: human liver microsomes
# T3 sequence (P11712 whole entry): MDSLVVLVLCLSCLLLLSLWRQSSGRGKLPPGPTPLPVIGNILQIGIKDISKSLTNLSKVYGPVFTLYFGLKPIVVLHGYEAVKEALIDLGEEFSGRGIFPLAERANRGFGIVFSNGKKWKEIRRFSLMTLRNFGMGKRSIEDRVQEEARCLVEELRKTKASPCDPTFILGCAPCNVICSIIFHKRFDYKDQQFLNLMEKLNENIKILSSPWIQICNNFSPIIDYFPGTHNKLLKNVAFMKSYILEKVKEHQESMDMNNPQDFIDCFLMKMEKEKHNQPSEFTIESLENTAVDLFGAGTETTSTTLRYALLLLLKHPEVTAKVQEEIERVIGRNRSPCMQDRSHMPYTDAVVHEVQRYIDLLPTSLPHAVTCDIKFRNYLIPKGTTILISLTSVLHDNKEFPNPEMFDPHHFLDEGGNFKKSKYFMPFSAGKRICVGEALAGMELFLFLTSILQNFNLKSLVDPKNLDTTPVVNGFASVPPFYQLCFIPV
# Summary of the method: as §1
# CYP1A2 = molecular target: T4, CYP1A2 (Homo sapiens, UniProt P05177); assay: Direct inhibition (DI) of CYP1A2 in human liver microsomes; assay type: in vitro ADME; conditions: probe Phenacetin, human liver microsomes 0.2 mg/mL, 10 μM compound, read-out: Direct inhibition (DI) 1A2 (Phenacetin)
# T4 construct: A system of 100 μL human liver microsomes; from tissue; host or cells: human liver microsomes
# T4 sequence (P05177 1-516): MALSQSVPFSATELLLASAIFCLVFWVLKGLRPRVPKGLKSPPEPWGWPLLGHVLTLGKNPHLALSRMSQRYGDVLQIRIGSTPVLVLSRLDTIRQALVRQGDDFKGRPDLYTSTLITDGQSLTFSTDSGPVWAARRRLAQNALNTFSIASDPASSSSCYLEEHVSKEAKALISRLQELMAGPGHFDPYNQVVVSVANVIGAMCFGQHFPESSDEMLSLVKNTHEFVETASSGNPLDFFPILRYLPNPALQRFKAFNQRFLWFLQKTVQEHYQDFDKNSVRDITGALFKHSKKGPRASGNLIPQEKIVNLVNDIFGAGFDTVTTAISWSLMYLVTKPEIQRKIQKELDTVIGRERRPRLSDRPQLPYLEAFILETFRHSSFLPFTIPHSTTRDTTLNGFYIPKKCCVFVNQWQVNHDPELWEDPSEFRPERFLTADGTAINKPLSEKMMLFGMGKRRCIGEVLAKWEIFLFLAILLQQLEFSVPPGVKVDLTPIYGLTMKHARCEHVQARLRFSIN
# Summary of the method: as §1
# CYP2C19 = molecular target: T5, CYP2C19 (Homo sapiens, UniProt P33261); assay: Direct inhibition (DI) of CYP2C19 in human liver microsomes; assay type: in vitro ADME; conditions: probe Mephenytoin, human liver microsomes 0.2 mg/mL, 10 μM compound, read-out: Direct inhibition (DI) 2C19 (Mephenytoin)
# T5 construct: A system of 100 μL human liver microsomes; from tissue; host or cells: human liver microsomes
# T5 sequence (P33261 whole entry): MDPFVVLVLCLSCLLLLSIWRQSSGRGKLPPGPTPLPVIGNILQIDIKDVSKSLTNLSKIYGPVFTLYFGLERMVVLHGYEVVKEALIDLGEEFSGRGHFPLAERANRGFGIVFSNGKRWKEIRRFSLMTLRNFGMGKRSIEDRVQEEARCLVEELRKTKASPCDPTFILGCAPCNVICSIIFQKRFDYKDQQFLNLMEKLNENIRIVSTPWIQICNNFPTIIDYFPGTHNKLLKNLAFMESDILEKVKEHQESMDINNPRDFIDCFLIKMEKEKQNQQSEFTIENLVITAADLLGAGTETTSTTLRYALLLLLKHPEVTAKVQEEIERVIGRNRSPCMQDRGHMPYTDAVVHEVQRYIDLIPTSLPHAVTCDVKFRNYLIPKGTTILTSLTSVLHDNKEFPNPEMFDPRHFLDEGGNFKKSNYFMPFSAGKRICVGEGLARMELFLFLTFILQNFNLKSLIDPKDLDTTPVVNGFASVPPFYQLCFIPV
# Summary of the method: as §1
# [1] = In vivo pharmacokinetics study in beagle dogs; conditions: beagle dogs, oral 15 mg/kg
# Experimental: 6 male beagle dogs (purchased from Beijing Marshall Biotechnology Co., Ltd., certificate No. SCXK (Beijing) 2016-0001) were divided into 2 groups with 3 dogs in each group, and all of the animals were fasted for about 12 hours before administration. One group was orally administrated with 15 mg/kg of the final product of Embodiment 22 (deionized water was added, followed by sonication for 29 minutes and stirring for 4 minutes, and a clear pale yellow dosing solution with a concentration of 3 mg/mL was prepared); the other group was orally administrated with 15 mg/kg of Pyrotinib (deionized water was added, followed by sonication for 28 minutes and stirring for 5 minutes, and a clear yellow dosing solution with a concentration of 3 mg/mL was prepared). Blood samples were collected before administration and at 15, 30, 60, 90, 120, 150, 180, 240, 360, 480, 720 and 1440 minutes respectively after administration.
# (§2) 1.0 mL of blood was collected from each animal through jugular vein puncture at each time point and heparin sodium was used for anticoagulation. The blood samples were collected and placed in labeled centrifuge tubes, and plasma was centrifuged (centrifugation conditions: 3500 rpm, 10 minutes, 2-8° C.). To 50 μL of plasma sample was added 300 μL of acetonitrile containing internal standard (Propranolol, 25 ng/mL) to precipitate the protain. After vortexing for 10 minutes and centrifuging at 6000 g for 20 minutes, 100 μL of supernatant was taken and injected into a 96-well plate. The drug concentration in plasma was determined by UPLC/MS-MS.
# [2] = In vivo pharmacokinetics study in cynomolgus monkeys; conditions: cynomolgus monkeys, oral 15 mg/kg
# Experimental: 6 male cynomolgus monkeys (purchased from Guangxi Guidong Primate Development Experiment Co., Ltd., certificate No. SCXK (Guangxi) 2013-0057) were divided into 2 groups with 3 in each group, and all of the animals were fasted for about 12 hours before administration. One group was orally administrated with 15 mg/kg of the final product of Embodiment 22 (deionized water was added, followed by sonication for 30 minutes and stirring for 3 minutes, and a clear pale yellow dosing solution with a concentration of 3 mg/mL was prepared); one group was administrated with 15 mg/kg of Pyrotinib (deionized water was added, followed by sonication for 30 minutes and stirring for 4 minutes, and a clear yellow dosing solution with a concentration of 3 mg/mL was prepared). Blood samples were collected before administration and at 15, 30, 60, 90, 120, 150, 180, 240, 360, 480, 720 and 1440 minutes respectively after administration.
# as §2
# [3] = test system: HER2 overexpressing human gastric cancer NCI-N87 nude mice xenograft; assay: HER2 overexpressing human gastric cancer NCI-N87 nude mice xenograft model; assay type: in vivo; conditions: 10 mg/kg, continuous oral administration for 21 days
# Description: We have established nude mice xenograft model for HER2 overexpression.
compound,measurement,setting,value
"CCOc1cc2ncc(C#N)c(Nc3ccc(OCc4ccccn4)c(Cl)c3)c2cc1NC(=O)/C=C/[C@H]1CCCN1C [Pyrotinib, reference compound]","inhibition at 20 min, 10 µM","CYP3A4; probe Midazolam, read-out: Direct inhibition (DI) 3A4 (Midazolam)",15%
same,"inhibition at 20 min, 10 µM","CYP3A4; probe Testosterone, read-out: Direct inhibition (DI) 3A4 (testosterone)",22%
same,"inhibition at 20 min, 10 µM",CYP2D6,55%
same,"inhibition at 20 min, 10 µM",CYP2C9,26%
same,"inhibition at 20 min, 10 µM",CYP1A2,22%
same,"inhibition at 20 min, 10 µM",CYP2C19,43%
same,peak oral absorption concentration,[1],146.2 ng/mL
same,AUC,"[1]; male, dog, plasma, read-out: AUC",1620 ng·h/mL
same,oral absorption peak concentration,[2],56.42 ng/mL
same,AUC,"[2]; male, cynomolgus monkey, plasma, read-out: AUC",325 ng·h/mL
same,tumor volume inhibition rate (GI %),[3],127.0%
